From PubChem BioAssay (NCI)
Several values for one entry are separate records, joined by “and”; a condition that tells them apart may be missing. Identical values can stand only once.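 96-well plates; 48 h exposure; 5 concentrations. Endpoints by linear interpolation between flanking doses. Not reached: highest tested concentration assigned. At the GI50, growth is halved. TGI: concentration producing complete growth inhibition.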

Legend:
Test in all cases: DTP human tumour cell line panel, 48 h
[1] = system: HCT-15 colon
[2] = system: HCC-2998 colon
[3] = system: HT29 colon
[4] = system: HOP-92 NSCLC
[5] = system: CAKI-1 renal
[6] = system: EKVX NSCLC
[7] = system: A498 renal
[8] = system: IGROV1 ovarian
[9] = system: SK-MEL-2 melanoma
[10] = system: HS 578T breast

| Compound | GI50 [1] | TGI [1] | GI50 [2] | TGI [2] | GI50 [3] | TGI [3] | GI50 [4] | TGI [4] | GI50 [5] | TGI [5] | GI50 [6] | TGI [6] | GI50 [7] | TGI [7] | GI50 [8] | TGI [8] | GI50 [9] | TGI [9] | GI50 [10] | TGI [10] |
| --- | --- | --- | --- | --- | --- | --- | --- | --- | --- | --- | --- | --- | --- | --- | --- | --- | --- | --- | --- | --- |
| O=C1NC(=O)N(S(=O)(=O)c2cc(C(=O)Nc3ccc(Cl)cc3)c(Cl)cc2S)S(=O)(=O)N1 | 18.9 µM | 36.5 µM | 12.9 µM | 30 µM | 23.8 µM | > 100 µM | 12.9 µM | 44.3 µM | 19 µM | 35.4 µM | 18.3 µM | 38.9 µM | 15.5 µM | 30.1 µM | 24.1 µM | 51.6 µM | 27.7 µM | 66.1 µM | 21.1 µM | 55.4 µM |
| Cn1cc(-c2ccc3c(c2)ncn3-c2cc(NS(=O)(=O)C3CC3)cc(-c3ccc(F)cc3F)c2)cn1 | 7.4 µM | > 100 µM | 22.7 µM | 80.1 µM | 10.3 µM | 38.3 µM | 2.83 µM | 62.4 µM | 3.77 µM | > 100 µM | 21.3 µM | > 100 µM | 0.074 µM | 0.542 µM | 3.49 µM | 61.9 µM | 25.7 µM | 61.5 µM | 1.68 µM | 12.6 µM |
| Cc1cccc(Oc2ccc(Nc3ncnc4ccc(NC(=O)CN(C)C)cc34)cc2Cl)c1 | 1.6 µM | 3.13 µM | 1.6 µM | 3.19 µM | 1.76 µM | 3.77 µM | 1.4 µM | 3.99 µM | 1.1 µM | 2.97 µM | 0.512 µM | 4.19 µM | 1.8 µM | 9.18 µM | 0.376 µM | 2.41 µM | 1.84 µM | 3.63 µM | 1.81 µM | 4.33 µM |
| Nc1cc(C(F)(F)F)c(-c2nc(N3CCOCC3)nc(N3CCOCC3)n2)cn1 | 0.318 µM | > 56.1 µM | 0.633 µM | > 88 µM | 0.214 µM | 36 µM | 0.139 µM | 0.765 µM | 0.502 µM | > 71.7 µM | 0.31 µM | 5.02 µM | 0.14 µM | 0.45 µM | 0.0916 µM | 0.528 µM | 0.618 µM | 8.68 µM | 0.231 µM | 1.46 µM |
| CC1=C(C(=O)Nc2ccc3[nH]ncc3c2)C(c2ccc(F)cc2)N=C(c2ccc(C(F)(F)F)nc2)N1 (stereo not given) | 16.2 µM | > 25 µM | > 25 µM | > 25 µM | 11.5 µM | > 25 µM | 0.548 µM | 7.6 µM | 11.9 µM | > 25 µM | 6.19 µM | > 25 µM | 2.23 µM | 9.32 µM | 5.66 µM | > 25 µM | 9.49 µM | > 25 µM | 5.05 µM | 20.2 µM |
| O=C1c2ccccc2N1C(=O)c1ccccc1[N+](=O)[O-] | – | > 100 µM | – | > 100 µM | – | > 100 µM | – | > 100 µM | – | > 100 µM | – | > 100 µM | – | > 100 µM | – | > 100 µM | – | > 100 µM | – | > 100 µM |
| CC1(C)CC2=NO[Se]3=C2C(=NO3)C1 | – | 11.5 µM | – | 16.8 µM | – | 10.1 µM | – | 8.21 µM | – | 11.4 µM | – | 9.68 µM | – | 10.4 µM | – | 6.43 µM | – | 24.8 µM | – | 33.1 µM |
| COc1nc(N)nc2nc[nH]c12 | > 800 µM | 500 µM and > 800 µM and > 1000 µM | > 800 µM and 574 µM | > 868 µM | > 800 µM | 500 µM and > 800 µM and > 1000 µM | 511 µM and 596 µM | 480 µM and 800 µM and > 1000 µM | 188 µM and 295 µM | 410 µM and 522 µM and 730 µM | 651 µM and > 759 µM | > 387 µM and 800 µM and > 1000 µM | 306 µM and 335 µM | 500 µM and 800 µM and 691 µM | 460 µM and 529 µM | 454 µM and 800 µM and > 1000 µM | > 800 µM | 500 µM and > 800 µM and > 853 µM | 603 µM | 500 µM and > 1000 µM |
